# Values of other authors in PMC7494335 (Science Advances, 2020).
# Tested on: humans
# Details: in vivo
structure (smiles),measurement,value
NCCc1c[nH]cn1 [histamine],pain if injected alone / addition to Dendrocnide extract,neither changed the nature of the pain caused by Dendrocnide extract nor caused substantial long-lasting pain if injected alone
